“Also recorded” adds a separate entry of the source. Counter-ions that a name gives are not always drawn.
Tests used:
[1] = parameters: method as in PMID 16453090; settings: Primo study; cited from earlier work
[2] = tested on: L-lactic acid influx transport in SkMC; experiment: Kinetic parameters of L-lactic acid influx transport in SkMC; type: cell-based, human
Method: After differentiation, and before the beginning of the transport experiments, cells were washed, and the medium replaced with HEPES (pH 7.4; 1 mL) buffer. Transport assays, including the pre-incubation period in HEPES, were performed at 37 °C. Assay conditions were previously optimized by standard incubations with L-lactic acid (e.g., incubation times). […] Assessment of influx transport. […] The suspension was passed through 27½ G needle 3-times. […] L-lactic acid concentrations.

SkMC = experiment: Intracellular concentrations of statins and loratadine at the end of inhibition assays (HPLC-UV)
Method: Instruments used consisted of a SpectraSystem P4000 pump, a SpectraSystem AS3000 autosampler, a Finnigan SpectraSystem UV6000 ultraviolet detector and a SpectraSystem SN4000 System Controller from Thermo Electron Corporation (San Jose, CA, USA). An Agilent Zorbax Column, Eclipse XDB-C8, 4.6 mm × 150 mm (Agilent, Santa Clara, CA, USA) was used at a temperature of 40 °C. An isocratic mobile phase contained 10 mM ammonium formate pH 3 and acetonitrile with varying proportions, at a flow rate of 1.0 mL/min. Details for mobile phase proportions, internal standards and monitored UV wavelengths are listed in Supplementary Table S1.
After the final incubation, cells were washed twice with PBS 10% methanol and once with PBS alone. The cells were lysed with methanol containing appropriate internal standards for the compounds of interest, then transferred and centrifuged for 10 min at room temperature. The supernatant was transferred to a culture borosilicate glass tube, evaporated and reconstituted in 100 µL of 10 mM ammonium formate pH 3 and acetonitrile (50:50 v/v). A volume of 20 µL per sample was injected. The ChromQuest Version 4.2.34 software was used for data acquisition.

[3] = tested on: MCT-mediated efflux transport of L-lactic acid (MCT1 and 4); experiment: Inhibition of L-lactic acid efflux in SkMC (intracellular [14C] L-lactic acid accumulation); type: cell-based, human; settings: for Inhibitory effect on L-lactic acid efflux (in words): 0.25 to 300 µM
Method: Assessment of efflux transport. A similar approach was used to measure efflux transport of L-lactic acid. For these experiments, distribution equilibrium of L-lactic acid was reached by adding MES or HEPES (pH 7.0 or 7.4; 1 mL) containing 6 mM [^14C] L-lactic acid (0.2 µCi/mL). After 10 min (to allow L-lactic acid to reach equilibrium), MES or HEPES buffer containing [^14C] L-lactic acid was replaced by L-lactic acid-free buffer for 2.5 min. Transport was stopped by placing culture plates on ice, rapidly aspirating the media and cells were washed 3-times with ice-cold HEPES buffer. Cellular radioactivity levels were determined as previously described in the Method section (Assessment of influx transport).
At the beginning of the experiment (t = 0), medium was replaced by HEPES (pH 7.4; 1 mL) buffer to wash cells. After removing the wash buffer, cells were loaded with [^14C] L-lactic acid (6 mM, 0.2 µCi/mL) in MES or HEPES buffer (pH 7.0 or pH 7.4). Briefly, following pre-incubation of cells in buffer containing [^14C] L-lactic acid for 10 min (to allow L-lactic acid to reach equilibrium), the buffer was replaced by a buffer containing [^14C] L-lactic acid and the potential inhibitor. This mixture was incubated for an additional 3 min in order to allow diffusion of the inhibitor in the cells without perturbing L-lactic acid equilibrium. Then, cells were washed once rapidly with buffer containing the tested inhibitors or vehicle, but without L-lactic acid. In the final step, the tested inhibitors or vehicle were added to the L-lactic acid-free buffer and incubated for 2.5 min as described previously for the assessment of the efflux transport. Culture plates were placed on ice to stop the reaction. Inhibition of L-lactic acid efflux was determined by measuring intracellular [^14C] L-lactic acid concentration.

[4] = tested on: MCT-mediated efflux transport of L-lactic acid (MCT1 and 4); experiment: L-lactic acid efflux inhibition after six-day pretreatment of SkMC; type: cell-based, human; settings: inhibitor 300 µM
Method: At the beginning of the experiment (t = 0), medium was replaced by HEPES (pH 7.4; 1 mL) buffer to wash cells. […] Then, cells were washed once rapidly with buffer containing the tested inhibitors or vehicle, but without L-lactic acid. […] Culture plates were placed on ice to stop the reaction. Inhibition of L-lactic acid efflux was determined by measuring intracellular [^14C] L-lactic acid concentration.

Compound: CC(C)c1c(C(=O)Nc2ccccc2)c(-c2ccccc2)c(-c2ccc(F)cc2)n1CC[C@@H](O)C[C@@H](O)CC(=O)O [Atorvastatin]
- Rate of patients experiencing muscular discomfort [1]: 14.9%

Compound: C[C@H](O)C(=O)O [L-lactic acid, L-lactic acid sodium salt]
- Km ([2]; pH 7.0): 17 mM
- Vmax of L-lactic acid influx transport ([2]; pH 7.0): 90 nmol/min/mg protein
- Km ([2]; pH 7.4): 23 mM
- Vmax of L-lactic acid influx transport ([2]; pH 7.4): 82 nmol/min/mg protein

Compound: CCOC(=O)N1CCC(=C2c3ccc(Cl)cc3CCc3cccnc32)CC1 [Loratadine]
- Effect of pH on intracellular accumulation of the drug (SkMC; SkMC, pH 7.0 compared to pH 7.4): did not affect

Compound: CCC(C)(C)C(=O)O[C@H]1C[C@@H](C)C=C2C=C[C@H](C)[C@H](CC[C@@H](O)C[C@@H](O)CC(=O)O)[C@H]21 [Simvastatin hydroxy acid, simvastatin hydroxyl acid ammonium salt]
- Intracellular lactic acid increase ([3]; SkMC (abstract)): 25–35%
- Maximal increase of intracellular L-lactic acid ([3]; SkMC, 300 µM inhibitor): 35%
- Inhibitory effect on L-lactic acid efflux (in words) ([3]; SkMC): weak inhibitory potency
- Intracellular L-Lactic Acid Increase (%) ([4]; no pretreatment (Control), pH 7.4): 65%
- Intracellular L-Lactic Acid Increase (%) ([4]; six-day pretreatment 0.033 µM, pH 7.0): 103%
- Intracellular L-Lactic Acid Increase (%) ([4]; six-day pretreatment 0.033 µM, pH 7.4): 51%
- Intracellular L-Lactic Acid Increase (%) ([4]; six-day pretreatment 0.1 µM, pH 7.0): 31%
- Intracellular L-Lactic Acid Increase (%) ([4]; six-day pretreatment 0.1 µM, pH 7.4): 35%

Compound: O=C(CCc1ccc(O)cc1)c1c(O)cc(O)cc1O [phloretin]
- Maximal intracellular L-lactic acid augmentation ([3]; SkMC, pH 7.0, 1 to 300 µM tested): 2.1 fold
- Maximal intracellular L-lactic acid augmentation ([3]; SkMC, pH 7.4, 1 to 300 µM tested): 2.2 fold

Compound: CC(C)c1nc(N(C)S(C)(=O)=O)nc(-c2ccc(F)cc2)c1/C=C/[C@@H](O)C[C@@H](O)CC(=O)O [rosuvastatin]
- Inhibitory effect on L-lactic acid efflux (in words) ([3]; SkMC): No L-lactic acid efflux inhibition; also recorded: No significant inhibitory effect
- Inhibitory effect on L-lactic acid transport (in words) ([3]; SkMC, pH 7.0): no significant inhibitory effect
- Uptake of the drug in SkMC (SkMC): did not have a significant uptake

Reference: publication PMC5750648, “Study of Statin- and Loratadine-Induced Muscle Pain Mechanisms Using Human Skeletal Muscle Cells” (Pharmaceutics, 2017)
